Patent US10656142B2, “Measuring antiplatelet activity” (Melaleuca, Inc., priority 2014, dated 2020)

Test system: platelets
Assay: Rate of platelet superoxide production during oscillatory shear stress (EPR with CAT1H spin probe) in platelet rich plasma, before and after supplementation
Assay type: in vivo, Human
Settings: 24 healthy volunteers; measured before and 10 hours after supplementation; Provex CV single or double daily dose, aspirin 325 mg; randomized, single-blind, cross-over study
Procedure: Human venous blood was collected via a low-pressure protocol. A manual blood pressure cuff was applied to the arm with a maximum pressure of 40 mmHg. The first sodium citrate vacutainer (75 USP Units, 4 mL) was discarded, and three more were then filled. Blood was centrifuged at 100 g for 19 minutes with no active braking mechanism. Centrifuged blood was then allowed to sit for 20 to 30 minutes. […] An initial 30 μL sample was taken via glass capillary tube for a baseline reading. The SSC was started, and an initial, 5 point kinetic sample was measured. […]
Amplitude readings were recalculated into μM, and a graph depicting μM/min was prepared. […]
24 healthy volunteers were supplemented with the test composition (Provex CV®) at two different dosages (single or double daily dose) or aspirin (325 mg) in a randomized, single-blind, cross-over study. The rate of superoxide production during shear stress was measured before and 10 hours after supplementation.

CC(=O)Oc1ccccc1C(=O)O [aspirin]
inhibition of platelet activation (rate of superoxide production during shear stress): no effect observed
